Test results from patent US6737383B1, “Herbicidal oxadiazolidines” (priority 1999, dated 2004).

Experiments:
blackgrass = assay: Test B pre/postemergence blackgrass; type: in vivo, Alopecurus myosuroides
How it was run: (§1)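 Herbicidal effect was estimated by eye on a ten-point control scale after plants spent twelve to sixteen days in a greenhouse following soil or foliar treatment. Foliar sprays targeted plants at one to four leaves; all doses were formulated in a non-phytotoxic solvent with surfactant.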

surinam grass = assay: Test B pre/postemergence surinam grass; type: in vivo, Brachiaria decumbens
How it was run: as §1

purple nutsedge = assay: Test B pre/postemergence purple nutsedge; type: in vivo, Cyperus rotundus
How it was run: as §1

smallflower flatsedge = assay: Test B flood test smallflower flatsedge; type: in vivo, Cyperus difformis
How it was run: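 Read-out is a visual response score from 0 (no effect) to 10 (complete control), assigned by comparison with untreated controls. Treatment was applied at the 2-leaf stage, and plants stayed in the greenhouse for twelve to sixteen days before scoring.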

bedstraw = assay: Test B pre/postemergence bedstraw; type: in vivo, Galium aparine
How it was run: as §1

crabgrass = assay: Test B pre/postemergence crabgrass; type: in vivo, Digitaria sanguinalis
How it was run: as §1

rape = assay: Test B pre/postemergence rape; type: in vivo, Brassica napus
How it was run: as §1

sugar beet = assay: Test B pre/postemergence sugar beet; type: in vivo, Beta vulgaris
How it was run: as §1

[1] = Preemergence, Rate 62 g/ha, scale of 0 to 10 where 0 is no effect and 10 is complete control
[2] = Preemergence, Rate 125 g/ha, 0 is no effect, 10 is complete control
[3] = Preemergence, Rate 250 g/ha, scale 0 to 10, 0 is no effect, 10 is complete control
[4] = Preemergence, Rate 500 g/ha, scale 0 to 10 (0 no effect, 10 complete control)
[5] = Rate 62 g/ha, Postemergence, scale of 0 to 10 where 0 is no effect and 10 is complete control
[6] = Rate 250 g/ha, Postemergence, scale 0 to 10, 0 is no effect, 10 is complete control
[7] = Rate 500 g/ha, Postemergence, scale 0 to 10
[8] = Rate 1000 g/ha, Preemergence, scale 0 to 10 (0 no effect, 10 complete control)
[9] = Rate 2000 g/ha, Postemergence, scale 0 to 10
[10] = Rate 2000 g/ha, Preemergence, scale 0 to 10
[11] = Postemergence, Rate 125 g/ha, scale of 0 to 10 where 0 is no effect and 10 is complete control
[12] = Postemergence, Rate 1000 g/ha, scale 0 to 10 (0 no effect, 10 complete control)

CC(C)N(C(=O)n1oc(=O)n(N(C)c2ccccc2)c1=O)c1ccc(F)cc1 [Compound 177]
9: Blackgrass plant response rating (blackgrass; [10]) | B. signalgrass plant response rating (surinam grass; [10]) | Bedstraw plant response rating (bedstraw; [3]) | Crabgrass plant response rating (crabgrass; [3]) | Crabgrass plant response rating (crabgrass; [4]) | Crabgrass plant response rating (crabgrass; [10])
0: Blackgrass plant response rating (blackgrass; [1]) | Blackgrass plant response rating (0 to 10 scale) (blackgrass; [2]) | Blackgrass plant response rating (blackgrass; [5]) | Plant response rating, Blackgrass (blackgrass; [6]) | B. signalgrass plant response rating (surinam grass; [11]) | B. signalgrass plant response rating (surinam grass; [12]) | B. signalgrass plant response rating (surinam grass; [1]) | B. signalgrass plant response rating (0 to 10 scale) (surinam grass; [2]) | B. signalgrass plant response rating (surinam grass; [3]) | B. signalgrass plant response rating (surinam grass; [4]) | B. signalgrass plant response rating (surinam grass; [5]) | Plant response rating, B. signalgrass (surinam grass; [6]) | B. signalgrass plant response rating (surinam grass; Rate 500 g/ha, Postemergence, scale 0 to 10, 0 no effect, 10 complete control) | B. signalgrass plant response rating (surinam grass; [9]) | Nutsedge plant response rating (purple nutsedge; [11]) | Nutsedge plant response rating (purple nutsedge; [12]) | Nutsedge plant response rating (purple nutsedge; [1]) | Nutsedge plant response rating (0 to 10 scale) (purple nutsedge; [2]) | Nutsedge plant response rating (purple nutsedge; [3]) | Nutsedge plant response rating (purple nutsedge; [4]) | Nutsedge plant response rating (purple nutsedge; [5]) | Plant response rating, Nutsedge (purple nutsedge; [6]) | Nutsedge plant response rating (purple nutsedge; [7]) | Plant response rating, Nutsedge (purple nutsedge; [8]) | Nutsedge plant response rating (purple nutsedge; [9]) | Nutsedge plant response rating (purple nutsedge; [10]) | S. Flatsedge plant response rating (smallflower flatsedge; Postemergence (flood test species), Rate 125 g/ha, scale of 0 to 10 where 0 is no effect and 10 is complete control) | S. Flatsedge plant response rating (smallflower flatsedge; Pre-emergence, Rate 1000 g/ha, scale 0 to 10 (0 no effect, 10 complete control)) | S. Flatsedge plant response rating (smallflower flatsedge; Rate 62 g/ha, Postemergence section, flood test species, scale of 0 to 10 where 0 is no effect and 10 is complete control) | Plant response rating, S. Flatsedge (smallflower flatsedge; Rate 250 g/ha, Postemergence (flood test), scale 0 to 10, 0 is no effect, 10 is complete control) | S. Flatsedge plant response rating (smallflower flatsedge; Rate 250 g/ha, Pre-emergence, flood-test species, scale 0 to 10, 0 is no effect, 10 is complete control) | S. Flatsedge plant response rating (smallflower flatsedge; Rate 500 g/ha, listed under Postemergence (flood test species), scale 0 to 10) | S. Flatsedge plant response rating (smallflower flatsedge; Rate 500 g/ha, Pre-emergence, flood test species, scale 0 to 10 (0 no effect, 10 complete control)) | S. Flatsedge plant response rating (smallflower flatsedge; Rate 2000 g/ha, Pre-emergence (as headed), scale 0 to 10) | Bedstraw plant response rating (bedstraw; [11]) | Bedstraw plant response rating (bedstraw; [1]) | Bedstraw plant response rating (0 to 10 scale) (bedstraw; [2]) | Bedstraw plant response rating (bedstraw; [5]) | Crabgrass plant response rating (crabgrass; [11]) | Crabgrass plant response rating (crabgrass; [12]) | Crabgrass plant response rating (crabgrass; [5]) | Crabgrass plant response rating (crabgrass; [9]) | Rape plant response rating (rape; [11]) | Rape plant response rating (rape; [12]) | Rape plant response rating (rape; [1]) | Rape plant response rating (0 to 10 scale) (rape; [2]) | Rape plant response rating (rape; [3]) | Rape plant response rating (rape; [4]) | Rape plant response rating (rape; [5]) | Plant response rating, Rape (rape; [6]) | Rape plant response rating (rape; [7]) | Plant response rating, Rape (rape; [8]) | Rape plant response rating (rape; [10]) | Sugarbeets plant response rating (sugar beet; [11]) | Sugarbeets plant response rating (sugar beet; [12]) | Sugarbeets plant response rating (sugar beet; [1]) | Sugarbeets plant response rating (0 to 10 scale) (sugar beet; [2]) | Sugarbeets plant response rating (sugar beet; [3]) | Sugarbeets plant response rating (sugar beet; [4]) | Sugarbeets plant response rating (sugar beet; [5]) | Plant response rating, Sugarbeets (sugar beet; [6]) | Sugarbeets plant response rating (sugar beet; [7]) | Plant response rating, Sugarbeets (sugar beet; [8]) | Sugarbeets plant response rating (sugar beet; [9]) | Sugarbeets plant response rating (sugar beet; [10])
5: Plant response rating, B. signalgrass (surinam grass; [8]) | Plant response rating, Bedstraw (bedstraw; [6])
2: Blackgrass plant response rating (blackgrass; [7]) | Plant response rating, Crabgrass (crabgrass; [6])
7: Plant response rating, Blackgrass (blackgrass; [8])
10: Bedstraw plant response rating (bedstraw; [4]) | Plant response rating, Bedstraw (bedstraw; [8]) | Bedstraw plant response rating (bedstraw; [10])
1: Crabgrass plant response rating (crabgrass; [1])
6: Blackgrass plant response rating (blackgrass; [3]) | Blackgrass plant response rating (blackgrass; [4]) | Blackgrass plant response rating (blackgrass; [9]) | Bedstraw plant response rating (bedstraw; [7]) | Crabgrass plant response rating (0 to 10 scale) (crabgrass; [2])
3: Crabgrass plant response rating (crabgrass; [7]) | Rape plant response rating (rape; [9])
8: Plant response rating, Crabgrass (crabgrass; [8])
